{
  "source": "paper PMC6270814",
  "about": "“Effects of Ursolic Acid Derivatives on Caco-2 Cells and Their Alleviating Role in Streptozocin-Induced Type 2 Diabetic Rats” (Molecules, 2014)",
  "key": {"[1]": {"system": "Caco-2 cells", "assay": "MTT cytotoxicity assay on Caco-2 cells", "assay_type": "cell-based, Human", "details": "Homo sapiens, 24 h, mean ± SD, n = 4, read-out: Inhibition Rate %", "description": "(§1) Human intestinal Caco-2 cells (ATCC, Rockville, MD, USA) were incubated at 37 °C in a humidified atmosphere of 5% CO2 in air. The cells were cultured in Dulbecco’s […] medium (DMEM) with 10% heat-inactivated fetal bovine serum, 1% non-essential amino acids, 1% L-glutamine, 1% penicillin/streptomycin (Gibco Life Technologies, Grand Island, NY, USA). The cells were sub-cultured at confluence by 0.05% trypsin-0.5 mM EDTA treatment before they were applied in the experiment.\n(§2) A MTT test was conducted to determine the possible toxicity of UA and its derivatives to Caco-2 cells. Briefly, cells were seeded at a density of 1 × 10^4 cells/mL in a 96-well plate and incubated for 24 h. The next day, cells were incubated with vehicle (0.1% DMSO) and compounds at 100, 50, 25, 12.5 μmol/L for 24 h, and then 5 g/L MTT solution (20 μL) was added for 4 h. Absorbance at 570 nm was measured using a Multimodel Plate Reader (Infinite 200, Tecan, Mannedorf, Switzerland)."}, "[2]": {"system": "Caco-2 cells", "assay": "2-NBDG glucose uptake by Caco-2 cell monolayers, Na+-independent (sodium free buffer)", "assay_type": "cell-based, Human", "details": "100 μM compound, Na+-independent (KCl/K2HPO4 buffer)", "description": "Caco-2 cells, which were derived from human colon adenocarcinoma, were selected for intestinal absorption studies because these cells express the morphological characteristics and most of the functional properties of differentiated small-intestinal enterocytes. Caco-2 cells were seeded on 24-well plates at the density of 2 × 10^5 cells/well. The medium was changed every 1–2 days, and the culture was carried out for 13 days. Then Caco-2 cells were placed in serum-free media for 24 h and then they were washed twice with Hanks’ balanced salt solution (HBSS, pH 7.5, 140 mM NaCl, 5 mM KCl, 1.2 mM Na2HPO4, 2 mM CaCl2, 1.2 mM MgSO4, 20 mM HEPES, 0.2% bovine serum albumin) before the uptake studies. When a sodium free buffer was required, NaCl and Na2HPO4 were replaced with equal amounts of KCl and K2HPO4, respectively. After washing, the cells were incubated for 15 min at room temperature in HBSS before the commencement of this experiment. The uptake studies were initiated by adding HBSS containing either control or test solution (100 μM) and […] (100 μM) for 30 min at 37 °C. Glucose uptake was stopped by adding twofold volume of ice-cold PBS and the wells were washed with ice-cold PBS three times. Fluorescent intensity was measured by a Multimodel Plate Reader (Tecan Infinity 200) with the 485 nmex and 535 nmemiss filter set before and after adding 2-NBDG. Then the cells were lysed in 200 μL lysis buffer (10 mM Tris-HCl pH = 7.4, 150 mM NaCl, 1% Triton-x-100, 1 mM EDTA, 0.1% SDS) and supplemented immediately before they were processed with 10 μg/mL PMSF. Cells were allowed to lyse on ice, and then vortexed and sonicated. The lysate was used for protein determination, protein concentrations were determined as described by BCA kit (Boster, Wuhan, China) with bovine serum albumin as standard."}, "[3]": {"system": "GLUT-2", "assay": "Western blot of GLUT-2 protein expression in Caco-2 cells", "assay_type": "cell-based, Human", "details": "100 μM, 6 h", "description": "Caco-2 cells were cultured on 6-well plates at a density of 1 × 10^6 cells/well for 13 days. The cells were placed in serum-free medium for 24 h prior to the treatment. Then UA and its derivatives (100 μM) were added, after 6 h incubation, the cells were immediately washed three times with ice-cold PBS and lysed in 200 μL lysis buffer. Cells were allowed to lyse on ice, and then scraped, vortexed, sonicated and stored at −80 °C for further analysis. Protein concentrations were determined as described and cell lysate was subjected to western blot analysis. Briefly, proteins with same amount were denatured in sample buffer, separated on 8% SDS-PAGE gel, and transferred onto a polyvinylidene diflouride membrane. The membranes were blocked for 1 h at 37 °C with 10% defatted milk in Tris-buffered saline (10 mM Tris-HCl, pH 7.5 and 137 mM NaCl) containing 0.05% Tween 20 (TBST). Membranes were then incubated overnight at 4 °C in blocking buffer with antibodies for GLUT-2, SGLT-1 and β-actin (EMD, Millipore, Billerica, MA, USA). Membranes were washed with TBST and incubated 1 h with appropriate secondary antibodies. Revelation was performed by using the enhanced chemiluminescence reagent and blue-light sensitive film. Densitometric analysis of films was performed with a Hewlett-Packard scanner equipped with a transparent adaptor and UN-SCAN-IT software."}, "[4]": {"system": "STZ-induced diabetic rats", "assay": "Fasting blood glucose in STZ-induced diabetic rats, 4 weeks treatment", "assay_type": "in vivo, rat", "details": "STZ diabetic rats", "description": "Adult male albino rats of Sprague-Dawley rats (180–220 g) were obtained from the Guangdong Medical Lab Animal Center, and maintained under standard laboratory conditions in a temperature (25–30 °C) and light-controlled (12-h light/dark cycle) room with 35%–60% humidity. The animals were acclimatized for 10 days before the experiments and provided with rodent chow and water ad libitum. The investigation was conducted in accordance with the Guide for the Care and Use of Laboratory Animals and approved by the institutional Animal Ethics Committee.\n(§3) Diabetes was induced by a single intraperitoneal injection of streptozotocin (Sigma-Aldrich, St. Louis, MO, USA) at a dose of 65 mg/kg body weight. STZ was dissolved in 0.1 M cold citrate buffer, pH 4.5. Control group were injected with citrate buffer alone. After 7 days for the development of diabetes, plasma glucose levels were determined of each rat. Rats with fasting blood glucose (FBG) range of above 16.7 mmol/L were considered as DM rats and were used for further study.\n(§4) According to the body weight and plasma glucose levels the rats were divided randomly into seven groups with six rats each and treated as follows: • Group I: Normal rats treated with 0.5% CMC-Na (2 mL/200 g body weight). • Group II: Diabetic rats treated with 0.5% CMC-Na. • Group III: Diabetic rats treated with 10 mg/kg of glibenclamide. • Group IV: Diabetic rats treated with 100 mg/kg of compound 1 (UA). • Group V: Diabetic rats treated with 100 mg/kg of compound 10. • Group VI: Diabetic rats treated with 100 mg/kg of compound 11. • Group VII: Diabetic rats treated with 100 mg/kg of compound 12.\n(§5) The treatment was continued daily for 28 days. Blood glucose levels and body weight were measured every week to ascertain the status of diabetes. After 4 weeks of treatment, the animals were fasted for 12 h and sacrificed by cervical dislocation under mild anaesthetization, blood was collected into heparinized tubes and centrifuged at 2,000 rpm for 10 min. Livers and kidneys were removed, washed and homogenized in ice-cold normal saline. This homogenates were centrifuged at 3,000 rpm for 10 min at 4 °C, and the supernatants were collected for the estimate of antioxidant markers.\n(§6) Fasting blood glucose levels were estimated on days 0, 7, 14, 28 with the single touch glucometer (Life Scan, Johnson & Johnson Company, New Brunswick, NJ, USA). Serum insulin level was measured by use of a commercial immunoassay kit by enzyme linked immunosorbent assay (Uscn. Life Science Inc., Wuhan, China). Serum total protein, albumin, triglycerides (TG), total cholesterol (TC), high-density lipoprotein cholesterol (HDL-C), and low-density lipoprotein cholesterol (LDL-C) were measured with an automatic biochemical analyzer (Sinnowa D240, Nanjing, China)."}, "[5]": {"system": "STZ-induced diabetic rats", "assay": "Serum biochemical parameters (insulin, total protein, albumin) in STZ-induced diabetic rats", "assay_type": "in vivo, rat", "details": "4 weeks, compounds 100 mg/kg, glibenclamide 10 mg/kg", "description": "as §3, §4, §5, §6"}, "[6]": {"system": "STZ-induced diabetic rats", "assay": "Body weight and daily food intake of STZ-induced diabetic rats", "assay_type": "in vivo, rat", "details": "compounds 100 mg/kg, glibenclamide 10 mg/kg, oral", "description": "as §3, §4, §5"}, "[7]": {"system": "STZ-induced diabetic rats", "assay": "Serum lipid profile (TG, TC, LDL-C, HDL-C) in STZ-induced diabetic rats", "assay_type": "in vivo, rat", "details": "4 weeks, compounds 100 mg/kg, glibenclamide 10 mg/kg", "description": "as §3, §4, §5, §6"}, "[8]": {"system": "STZ-induced diabetic rats", "assay": "Oxidative stress markers (GSH, SOD, MDA) in liver and kidney of STZ-induced diabetic rats", "assay_type": "in vivo, rat", "details": "4 weeks", "description": "as §3, §4, §5\nThe tissue homogenates of liver and kidney were used for the estimate of antioxidant markers. Glutathione (GSH) level was measured with 5, 5'-dithiobis-(2-nitrobenzoic acid) (DTNB) as described by Sedlak and Lindsay. Superoxide dismutase (SOD) activity was assessed according to the method of Sinha. Malondialdehyde (MDA) activity was estimated with the thiobarbituric acid method."}, "[9]": {"assay": "MTT cytotoxicity assay on Caco-2 cells", "assay_type": "cell-based, Human", "details": "human", "description": "as §1, §2"}},
  "data": [
    {"smiles": "CCCC(=O)O[C@H]1CC[C@@]2(C)C(CC[C@]3(C)C2CC=C2C4[C@@H](C)[C@H](C)CC[C@]4(C(=O)O)CC[C@]23C)C1(C)C", "note": "(stereo partly shown) [Compound 11]", "values": [
      {"measurement": "inhibition at 100 µM", "setting": "[1]", "value": "2.29 ± 6.08", "unit": "%"},
      {"measurement": "glucose uptake, % of the control value (Na+-independent)", "setting": "[2]", "value": "74 % of the control value"},
      {"measurement": "effect on expression of protein GLUT-2", "setting": "[3]", "value": "significant effects on reducing"},
      {"measurement": "effect on lowering fasting blood glucose levels", "setting": "[4]; 100 mg/kg, 4 weeks", "value": "no significant effect"},
      {"measurement": "Fasting Blood Glucose Level, Week 0", "setting": "[4]; Week 0 (before treatment), compounds 100 mg/kg, glibenclamide 10 mg/kg, n = 6", "value": "318.60 ± 17.64", "unit": "mg/dL"},
      {"measurement": "Fasting Blood Glucose Level, Week 1", "setting": "[4]; Week 1, compounds 100 mg/kg, glibenclamide 10 mg/kg daily, n = 6", "value": "365.40 ± 20.34", "unit": "mg/dL"},
      {"measurement": "Fasting Blood Glucose Level, Week 2", "setting": "[4]; Week 2, compounds 100 mg/kg, glibenclamide 10 mg/kg daily, n = 6", "value": "352.80 ± 27.36", "unit": "mg/dL"},
      {"measurement": "Fasting Blood Glucose Level, Week 3", "setting": "[4]; Week 3, compounds 100 mg/kg, glibenclamide 10 mg/kg daily, n = 6", "value": "324.00 ± 23.04", "unit": "mg/dL"},
      {"measurement": "Fasting Blood Glucose Level, Week 4", "setting": "[4]; Week 4, compounds 100 mg/kg, glibenclamide 10 mg/kg daily, n = 6", "value": "351.00 ± 26.64", "unit": "mg/dL"},
      {"measurement": "serum albumin level vs diabetic control", "setting": "[5]", "value": "no appreciable improvement"},
      {"measurement": "serum insulin level vs diabetic control", "setting": "[5]", "value": "non-significant effect"},
      {"measurement": "serum total protein level vs diabetic control", "setting": "[5]", "value": "no appreciable improvement"},
      {"measurement": "daily food intake vs untreated diabetic rats", "setting": "[6]", "value": "reduce daily food intake significantly"},
      {"measurement": "serum TC level vs diabetic control", "setting": "[7]", "value": "significantly decreased"},
      {"measurement": "serum TG level vs diabetic control", "setting": "[7]", "value": "significantly decreased"},
      {"measurement": "GSH level in kidney", "setting": "[8]; kidney of STZ diabetic rats", "value": "great effect"},
      {"measurement": "SOD level in the liver and kidney", "setting": "[8]; liver and kidney of STZ diabetic rats", "value": "great improvement"}
    ]},
    {"smiles": "CC(=O)O[C@H]1CC[C@@]2(C)C(CC[C@]3(C)C2CC=C2C4[C@@H](C)[C@H](C)CC[C@]4(C(=O)Nc4ccccc4F)CC[C@]23C)C1(C)C", "note": "(stereo partly shown) [Compound 6]", "values": [
      {"measurement": "viability at 24 h, 100 µM", "setting": "[9]", "value": 86.1, "unit": "%"},
      {"measurement": "inhibition at 100 µM", "setting": "[1]", "value": "13.9 ± 4.52", "unit": "%"}
    ]}
  ]
}
